Data taken from ChEMBL document CHEMBL5226375, “Synthesis and Comprehensive in Vivo Activity Profiling of Olean-12-en-28-ol, 3β-Pentacosanoate in Experimental Autoimmune Encephalomyelitis: A Natural Remyelinating and Anti-Inflammatory Agent” (J Nat Prod, 2023).
The source made the active and inactive calls. The calls are words filed in the database; no cut-off is given here.

What was measured:
[1] = Stability of the compound in THF/phosphate buffer at pH 2.5 incubated for 2 hrs under stirring conditions by 1H-NMR analysis; format: physicochemical; conditions: pH 2.5, 2 h
Mus musculus [2] = test: Anti-inflammatory activity against MOG35-55-induced experimental autoimmune encephalomyelitis C57BL/6 mouse model assessed as fold change in STAT3 gene expression in brain at 600 mg/kg/day, ig for 14 days starting from 12th day of immunization by RT-qPCR analysis relative to control; format: functional; conditions: time 14 day
Mus musculus [3] = test: Anti-inflammatory activity against MOG35-55-induced experimental autoimmune encephalomyelitis C57BL/6 mouse model assessed as fold change in MBP gene expression in brain at 600 mg/kg/day, ig for 14 days starting from 12th day of immunization by RT-qPCR analysis relative to control; format: functional; conditions: time 14 day
Mus musculus [4] = test: Anti-inflammatory activity against MOG35-55-induced experimental autoimmune encephalomyelitis C57BL/6 mouse model assessed as fold change in CXCL9 gene expression in brain at 300 mg/kg/day, ig for 14 days starting from 12th day of immunization by RT-qPCR analysis relative to control; format: functional; conditions: time 14 day
Mus musculus [5] = test: Anti-inflammatory activity against MOG35-55-induced experimental autoimmune encephalomyelitis C57BL/6 mouse model assessed as fold change in NFKB gene expression in brain at 300 mg/kg/day, ig for 14 days starting from 12th day of immunization by RT-qPCR analysis relative to control; format: functional; conditions: time 14 day
Mus musculus [6] = test: (§1) Anti-inflammatory activity against MOG35-55-induced experimental autoimmune encephalomyelitis C57BL/6 mouse model assessed as reduction in serum chemokines level by measuring reduction in IL-3 level at 600 mg/kg/day, ig for 14 days starting from 12th day of immunization by ELISA; format: functional, organism-based; conditions: time 14.0 day
Mus musculus [7] = test: Anti-inflammatory activity against MOG35-55-induced experimental autoimmune encephalomyelitis C57BL/6 mouse model assessed as reduction in serum chemokines level by measuring reduction in CXCL1 level at 600 mg/kg/day, ig for 14 days starting from 12th day of immunization by ELISA; format: functional, organism-based; conditions: time 14.0 day
Mus musculus [8] = test: Anti-inflammatory activity against MOG35-55-induced experimental autoimmune encephalomyelitis C57BL/6 mouse model assessed as increase in serum IL-10 level at 600 mg/kg/day, ig for 14 days starting from 12th day of immunization by ELISA; format: functional, organism-based; conditions: time 14.0 day
Mus musculus [9] = test: Anti-inflammatory activity against MOG35-55-induced experimental autoimmune encephalomyelitis C57BL/6 mouse model assessed as methylation of CpG sites of […] gene promoter in brain at 600 mg/kg, ig for 14 days starting from 12th day of immunization by PCR analysis (reference value: 13.1 +/-8%); format: functional; conditions: time 14 day
Mus musculus [10] = test: Anti-inflammatory activity against MOG35-55-induced experimental autoimmune encephalomyelitis C57BL/6 mouse model assessed as methylation of CpG sites of IL10RA gene promoter in brain at 600 mg/kg, ig for 14 days starting from 12th day of immunization by PCR analysis (reference value: 34.9 +/-4%); format: functional; conditions: time 14 day
Mus musculus [11] = test: Anti-inflammatory activity against MOG35-55-induced experimental autoimmune encephalomyelitis C57BL/6 mouse model assessed as methylation of CpG sites of IL11 gene promoter in brain at 600 mg/kg, ig for 14 days starting from 12th day of immunization by PCR analysis (reference value: 61.1 +/-4%); format: functional; conditions: time 14 day
Mus musculus [12] = test: Anti-inflammatory activity against MOG35-55-induced experimental autoimmune encephalomyelitis C57BL/6 mouse model assessed as methylation of CpG sites of IL17A gene promoter in brain at 600 mg/kg, ig for 14 days starting from 12th day of immunization by PCR analysis (reference value: 58 +/-6%); format: functional; conditions: time 14 day
Mus musculus [13] = test: as §1, with “EAE symptoms” for “serum chemokines level”, “cumulative scores” for “IL-3 level”, “0.3” for “600”, “and measured from day 12 to 38 post-immunization” for “by ELISA”; format: functional, organism-based; conditions: time 1-26 day
Mus musculus [14] = test: Anti-inflammatory activity against MOG35-55-induced experimental autoimmune encephalomyelitis C57BL/6 mouse model assessed as fold change in CXCL10 gene expression in brain at 0.3 mg/kg/day, ig for 14 days starting from 12th day of immunization by RT-qPCR analysis relative to control; format: functional; conditions: time 14 day
Mus musculus [15] = test: Anti-inflammatory activity against MOG35-55-induced experimental autoimmune encephalomyelitis C57BL/6 mouse model assessed as fold change in TNF-alpha gene expression in brain at 0.3 mg/kg/day, ig for 14 days starting from 12th day of immunization by RT-qPCR analysis relative to control; format: functional; conditions: time 14 day
Mus musculus [16] = test: Anti-inflammatory activity against MOG35-55-induced experimental autoimmune encephalomyelitis C57BL/6 mouse model assessed as fold change in C1S gene expression in brain at 0.3 mg/kg/day, ig for 14 days starting from 12th day of immunization by RT-qPCR analysis relative to control; format: functional; conditions: time 14 day
Mus musculus [17] = test: Anti-inflammatory activity against MOG35-55-induced experimental autoimmune encephalomyelitis C57BL/6 mouse model assessed as fold change in MMP9 gene expression in brain at 0.3 mg/kg/day, ig for 14 days starting from 12th day of immunization by RT-qPCR analysis relative to control; format: functional; conditions: time 14 day
Mus musculus [18] = test: Anti-inflammatory activity against MOG35-55-induced experimental autoimmune encephalomyelitis C57BL/6 mouse model assessed as fold change in HIF1A gene expression in brain at 0.15 mg/kg/day, ig for 14 days starting from 12th day of immunization by RT-qPCR analysis relative to control; format: functional; conditions: time 14 day
Mus musculus [19] = test: Anti-inflammatory activity against MOG35-55-induced experimental autoimmune encephalomyelitis C57BL/6 mouse model assessed as fold change in NFKB gene expression in brain at 0.15 mg/kg/day, ig for 14 days starting from 12th day of immunization by RT-qPCR analysis relative to control; format: functional; conditions: time 14 day
Mus musculus [20] = test: Anti-inflammatory activity against MOG35-55-induced experimental autoimmune encephalomyelitis C57BL/6 mouse model assessed as fold change in H2EB1 (HLA-DRB1) gene expression in brain at 0.15 mg/kg/day, ig for 14 days starting from 12th day of immunization by RT-qPCR analysis relative to control; format: functional; conditions: time 14 day
Mus musculus [21] = test: Anti-inflammatory activity against MOG35-55-induced experimental autoimmune encephalomyelitis C57BL/6 mouse model assessed as fold change in APP gene expression in brain at 0.15 mg/kg/day, ig for 14 days starting from 12th day of immunization by RT-qPCR analysis relative to control; format: functional; conditions: time 14 day
Mus musculus [22] = test: Anti-inflammatory activity against MOG35-55-induced experimental autoimmune encephalomyelitis C57BL/6 mouse model assessed as fold change in YWHAH gene expression in brain at 0.15 mg/kg/day, ig for 14 days starting from 12th day of immunization by RT-qPCR analysis relative to control; format: functional; conditions: time 14 day
Mus musculus [23] = test: Anti-inflammatory activity against MOG35-55-induced experimental autoimmune encephalomyelitis C57BL/6 mouse model assessed as upregulation of MBP protein expression in brain at 0.15 to 0.3 mg/kg/day, ig for 14 days starting from 12th day of immunization by western blot analysis; format: functional, organism-based; conditions: dose 0.15-0.3 mg/kg/day, time 14.0 day
Mus musculus [24] = test: Anti-inflammatory activity against MOG35-55-induced experimental autoimmune encephalomyelitis C57BL/6 mouse model assessed as proportion of brain infiltrating cells expressing CD45+/CD11b/c high surface markers at […]/day, ig for 14 days starting from 12th day of immunization by flow cytometry (reference value: 87.7%); format: functional; conditions: time 14 day

Question: What does the source list for `CCCCCCCCCCCCCCCCCCCCCCCCC(=O)O[C@H]1CC[C@]2(C)[C@H]3CC=C4[C@@H]5CC(C)(C)CC[C@]5(CO)CC[C@@]4(C)[C@]3(C)CC[C@H]2C1(C)C`?
Answer: Stability [1]: Stable; fold change (FC) (Mus musculus [2]): 1.32; fold change (FC) (Mus musculus [3]): 3.8; fold change (FC) (Mus musculus [4]): 1.63; fold change (FC) (Mus musculus [5]): 1.62; Activity (Mus musculus [6]): Active; Activity (Mus musculus [7]): Active; Activity (Mus musculus [8]): Active; Activity (Mus musculus [9]): 15.2%; Activity (Mus musculus [10]): 32%; Activity (Mus musculus [11]): 41.4%; Activity (Mus musculus [12]): 68.3%

Question: Which results are given for `CCCCCCCCc1ccc(CCC(N)(CO)CO)cc1` [FINGOLIMOD]?
Answer: Activity (Mus musculus [13]): Active; fold change (FC) (Mus musculus [14]): 2.17; fold change (FC) (Mus musculus [15]): -1.46; fold change (FC) (Mus musculus [16]): 2.12; fold change (FC) (Mus musculus [17]): 4.44; fold change (FC) (Mus musculus [18]): 2.49; fold change (FC) (Mus musculus [19]): 2.04; fold change (FC) (Mus musculus [20]): 3.85; fold change (FC) (Mus musculus [21]): 1.77; fold change (FC) (Mus musculus [22]): 1.1; Activity (Mus musculus [23]): inactive; Activity (Mus musculus [24]): 46.6%
